{"source": "patent US6599878B2", "about": "“Superoxygenating blood substitutes based on hemoglobin and dihydropyidine compositions” (priority 1992, dated 2003)", "key": {"[1]": {"experiment": "BAEE during oxyHb-HD pilot study", "assay_type": "in vivo, dog", "settings": "n = 3", "text": "(§1) In another pilot study, we examined if infusion of a nitric oxide substrate (N-benzoyl-L-arginine ethyl ester, i.e. BAEE) would override the hypothesized NO scavenging by oxyHb and thereby mimic Ab-HD hemodynamics and cGMP production shown in Tables 8-11. While BAEE administration increased plasma cGMP levels and caused significant vasodilation as evidenced by the decreased mean arterial pressure, cardiac output was not increased (Table 12)."}, "cyclic GMP [2]": {"system": "cyclic GMP", "experiment": "BAEE during oxyHb-HD pilot study", "assay_type": "in vivo, dog", "settings": "for cGMP: plasma", "text": "as §1"}, "[3]": {"experiment": "BAEE reversal of L-NAME effects in Ab-HD dogs", "assay_type": "in vivo", "settings": "BAEE after L-NAME in AB-HD dogs", "quoted_text": "With BAEE, the original hemodynamics of Ab-HD alone were expected to be evident, i.e. increased cardiac output."}, "nitric oxide synthase": {"system": "nitric oxide synthase", "experiment": "L-NAME during Ab-HD pilot study", "settings": "dog, in vivo", "experimental": "Approximately 6 mg/kg L-NAME was administered i.v. bolus during Ab-HD."}, "[4]": {"experiment": "Properties of the hemoglobin product and colloid solutions", "assay_type": "physicochemical", "experimental": "(§2) Blood pH, PCO2, PO2 and Na^+, K^+ and Ca^++ concentrations were measured with a Nova Stat Profile 1 analyzer (Waltham, Mass.). Plasma colloid osmotic pressure (COP) was determined before and after hemodilution with a Wescor 4400 Colloid Osmometer (Logan, Utah). […] Hematocrit was determined volumetrically. Hemoglobin (gm %), methemoglobin (%) and percent oxygen saturation were measured with an Instrumentation Laboratories 482 CO-Oximeter (Lexington, Mass.). Hemoglobin oxygen content was measured with the co-oximeter and added to the dissolved oxygen (0.003×PO2) to give total blood oxygen content (vol %)."}, "[5]": {"experiment": "In vivo test of hemoglobin product for common adverse effects during hemodilution", "settings": "anesthetized dog, hemodilution to hematocrit 50% of baseline", "procedure": "The hemoglobin product was also tested in vivo on dogs for common adverse effects of therapeutic products which are administered intravascularly. The hemodilution protocol used and the physiologic tests performed are standard in the art and were similar to that described in Rabiner et al., J. Exp. Med., 86, 455-463 (1967); Sunder-Plassmann et al., supra; and Crystal et al., Anesth. Analg., 67, 211-218 (1988) Briefly, the hemoglobin product was infused into a venous access of an anesthetized dog with simultaneous withdrawal of arterial blood on a one-to-one basis at about 25 ml/minute until hematocrit was 50% of baseline (about 20 vol %). Tests for pyrogenic effects, hypotensive effects, arrhythmia, inotropic effects, bradycardia, tachycardia, hypovolemia, dysoria, and coagulopathy were all negative."}, "[6]": {"experiment": "Systemic hemodynamics in anesthetized hemodiluted dogs (Example I)", "assay_type": "in vivo, mongrel dogs", "experimental": "Twenty-four conditioned, heartworm-free male mongrel dogs (20 to 30 kg) were anesthetized with sodium pentobarbital (30 mg/kg i.v.) followed by an i.v. maintenance dose of 4 mg/kg/hour. After intubation of the trachea with a cuffed endotracheal tube, the dog was mechanically ventilated (Siemens 900D Servoventilator) with 100% oxygen, tidal volumes of 10 to 12 ml/kg and respiration at a rate to achieve normocarbia. […] Sodium bicarbonate was not administered. The body temperature of the dog was maintained at 39 C. with water-circulated heating pads.\nThe dog was placed supine and a polyethylene catheter (PE 200) was inserted into the thoracic aorta via the left femoral artery for measurement of blood pressure. Two small-bore (PE 90) heparin-filled catheters of different lengths were placed in the abdominal aorta via the right femoral artery to collect reference blood samples containing radioactive microspheres for measurement of regional blood flow. Wide-bore (PE 240) catheters were placed in the right femoral vein and in the right carotid artery, for isovolemic exchange transfusion and for the administration of intravenous fluids and collection of arterial blood samples. A 5 french thermodilution catheter was advanced into the pulmonary artery via the right external jugular vein for measurement of cardiac output and right atrial pressure. A Foley catheter was inserted into the bladder for urine collection.\nUnder fluoroscopy, a 5 french volume-conductance catheter (Mansfield Webster) was inserted via the left carotid artery across the aortic valve to the apex of the left ventricle to measure instantaneous volume.\nThe animal was then placed on its right side and paralyzed with doxacurium (0.05 mg/kg) to perform a left thoracotomy in the fourth intercostal space. The exposed lung was retracted with gauze. Five cm H2O positive end-expiratory pressure was instituted to prevent atelectasis. A small incision was made in the pericardium near the left atrial appendage. The appendage was protracted and a PE 90 catheter, for microsphere injection, inserted into the ventricle via pressure verification and then pulled back into the atrium. A 3 french micromanometer-tipped pressure catheter (Millar) was then inserted via the appendage into the left ventricle for pressure recording. Both catheters were secured with a ligature around the appendage and distally taped to the animal. The exposed thoracic surface was covered with plastic film to prevent evaporation.\nContinuous measurements of heart rate (HR), pulsatile aortic pressure, mean aortic pressure (MAP), left ventricular peak pressure (LVPP), rate-of-change of LVPP (dP/dt), LV end diastolic pressure (LVEDP), LV volume, and right atrial pressure (RAP) were recorded on an analog thermal array recorder (Gould Model TA4000) and stored on a computerized data acquisition system (Halcom, Inc.) Cardiac output (CO) was measured in triplicate using a Spectramed Hemoprol computer. Systemic vascular resistance (SVR) was calculated from (MAP−RAP)÷CO. Systemic vascular hindrance (SVH) was calculated from SVR÷η, where η is the apparent viscosity of blood in centipoise (cp). At high flow rates (shear rates≈200 s^−1) assumed in the aorta, η is 4.0 cp for hematocrit (Hct) of 40 vol % and 2.1 cp for Hct of 20 vol %. Stroke volume was derived from CO÷HR. LV stroke work (LVSW) was calculated from (systolic AoP−LVEDP)×SV×0.0136."}, "[7]": {"experiment": "Blood gases, electrolytes, hemoglobin, colloid osmotic pressure and blood volume (Example I)", "assay_type": "in vivo, mongrel dogs", "settings": "for Plasma Hb: anesthetized dogs", "experimental": "as §2\nTotal blood volume was computed from plasma volume (indicator dilution of iodinated I^125-albumin, Mallinckrodt Medical, Inc., St. Louis, Mo.) and whole body hematocrit.\nFollowing cannulation all animals were hydrated with 5 mg % albumin to increase filling pressure (LVEDP) above 5 mm Hg and to bring hematocrit to near 40 vol %. Twelve dogs underwent isovolemic exchange of blood for 10 gm % hemoglobin to hematocrit 50% of baseline.\n(§3) Once MAP stabilized (≈5-10 min), hemodynamic measurements, blood gases and other samples were obtained."}, "[8]": {"experiment": "Whole body oxygenation (Example I)", "assay_type": "in vivo, mongrel dogs", "settings": "for CaO2: arterial oxygen content", "experimental": "as §2\nWhole body oxygen extraction ratio (O2 extr, %) was calculated from arteria-mixed venous oxygen content difference C(a−v)O2 divided by the arterial oxygen content (CaO2). Whole body oxygen consumption (WBVO2) in ml/minute was determined using the Fick equation, WBVO2=CO×C(a−v)O2 Oxygen delivery (DO2) in ml/minute was calculated from CaO2×CO.\nUpon arrival in the laboratory, typically all dogs had hematocrits of 45 vol % or greater and filling pressures (LVEDP) of 5 mm Hg or less. Following cannulation all animals were hydrated with 5 mg % albumin to increase filling pressure (LVEDP) above 5 mm Hg and to bring hematocrit to near 40 vol %. Twelve dogs underwent isovolemic exchange of blood for 10 gm % hemoglobin to hematocrit 50% of baseline. […] The colloid pressure of 10 gm % hemoglobin and 8 gm % albumin (both about 40 Torr) is about twice that of dog plasma and after in vivo dilution would be expected to sustain plasma volumes at baseline values or greater.\nas §3"}, "[9]": {"experiment": "Regional blood flows by radioactive microspheres (Example I)", "assay_type": "in vivo, mongrel dogs", "settings": "dogs, hematocrit 50% of control", "experimental": "Briefly, prior to injection, microspheres labeled with Sc^46, Sr^85, Sn^113 or Ce^141 were vortexed and sonicated. Approximately 30 microcuries (1×10^6 microspheres) were injected into the left atrium of a dog. Beginning with each microsphere injection, duplicate reference blood samples were collected at a constant rate (6 ml min^−1) for 3 minutes from the femoral PE 90 catheters. Radioactivity of the duplicate samples differed by less than 10%, indicating adequate mixing of the microspheres in the left ventricular output. To maintain isovolemic conditions during reference sampling, a 5% albumin solution was infused simultaneously.\nAfter the final injection of microspheres, the heart was stopped by intravenous injection of potassium chloride. Skin and bone (rib) were sampled from a shaved area distal to the thoracotomy. Skeletal muscle samples were taken from the hindlimb, back, forelimb and head. The GI tract was excised from the esophageal sphincter to the anus. All mesentery and omentum were trimmed. The stomach was separated from the tract. These and all other organs were weighed. Multiple samples were taken from each organ and transferred to a tared counting tube.\nThe tissue and reference samples were weighed and analyzed for radioactivity with a gamma scintillation counter equipped with a multichannel analyzer (Packard Instrument, Downers Grove, Ill.). Isotope separation was accomplished by standard techniques of gamma spectroscopy. Values for organ blood flows (BForgan) in ml min^−1 were calculated from the equation BForgan=ABF×(MC÷AC)×organ weight (g), where ABF is the rate of arterial reference sampling (ml/minute), MC is the microsphere radioactivity (counts min^−1 g^−1) in the tissue samples, and AC is the total microsphere radioactivity (counts/minute) in the arterial reference samples. The fractional distribution of cardiac output to each organ was computed from BForgan÷ΣBForgan, where ΣBForgan is the sum of all organ flows. Skeletal muscle, skin and bone weights were calculated as 40%, 9% and 8% of body weight, respectively."}, "cyclic GMP [10]": {"system": "cyclic GMP", "experiment": "Plasma cyclic GMP and arterial pressure before and after hemodilution and SNP (Example II)", "assay_type": "in vivo, dog", "settings": "hemodilution alone, n = 5, mean ± sem"}, "cyclic GMP [11]": {"system": "cyclic GMP", "experiment": "Regional interstitial cGMP by microdialysis", "assay_type": "in vivo, dog", "settings": "during hemodilution alone, n = 4", "quoted_text": "An in vivo method that is based on direct microdialysis of the organ tissue was used to examine the regional interstitial production of cGMP. The microdialysis technique uses a small dialysis fiber (250 μm diameter) that is inserted into the tissue and perfused to sample extracellular metabolites."}, "[12]": {"settings": "BAEE 400 μg/kg/min during oxyHb-HD, n = 3"}, "[13]": {"settings": "anesthetized dogs, hemodilution to hematocrit 50% of baseline"}}, "note": "Values joined by “and” are separate entries in the source; they are usually repeats but may differ in a detail not shown here. Equal entries are not always repeated. Marks after values point to notes of the source that are not given here."}
{"compound": "CCOC(=O)[C@H](CCCNC(=N)N)NC(=O)c1ccccc1", "note": "[BAEE, N-benzoyl-L-arginine ethyl ester, reference compound]", "values": [{"measurement": "CO", "setting": "[1]; BAEE 400 μg/kg/min during oxyHb-HD", "value": "2376 ± 233", "unit": "mL/min"}, {"measurement": "MAP", "setting": "cyclic GMP [2]; [12]", "value": "108 ± 8*+ mm Hg"}, {"measurement": "cGMP", "setting": "cyclic GMP [2]; [12]", "value": "24.44 ± 1.05*+ μg/ml"}, {"measurement": "reversal of cardiac output to the high levels of Ab-HD alone", "setting": "[3]", "value": "not reversed"}]}
{"compound": "COC(=O)[C@@H](N)CCCNC(=N)N[N+](=O)[O-]", "note": "[L-NAME, L-nitro arginine methyl ester]", "values": [{"measurement": "CO", "setting": "nitric oxide synthase", "value": "2413 ± 1721+ ml/min"}, {"measurement": "MAP", "setting": "nitric oxide synthase", "value": "152 ± 8*+ mm Hg"}, {"measurement": "cGMP", "setting": "nitric oxide synthase", "value": "17.38 ± 0.98*+ μg/ml"}]}
{"compound": "HbHD: Purified canine hemoglobin (10 gm %) used for isovolemic hemodilution", "values": [{"measurement": "% carboxyhemoglobin", "setting": "[4]", "value": "<0.5", "unit": "%"}, {"measurement": "% methemoglobin", "setting": "[4]", "value": "<1", "unit": "%"}, {"measurement": "Ca^+", "setting": "[4]", "value": 1.2, "unit": "mmol/L"}, {"measurement": "Colloid osmotic pressure", "setting": "[4]", "value": 40, "unit": "mm Hg"}, {"measurement": "Davenport diagram", "setting": "[4]", "value": "Normal"}, {"measurement": "Haldane effect", "setting": "[4]", "value": "Normal"}, {"measurement": "Hill plot", "setting": "[4]", "value": "Normal"}, {"measurement": "K", "setting": "[4]", "value": 3.4, "unit": "mmol/L"}, {"measurement": "Na", "setting": "[4]", "value": 150, "unit": "mmol/L"}, {"measurement": "Osmolality", "setting": "[4]", "value": 310, "unit": "mOsmol/kg"}, {"measurement": "Oxygen capacity", "setting": "[4]", "value": 13.5, "unit": "vol %"}, {"measurement": "Oxygen content", "setting": "[4]", "value": 13.5, "unit": "vol %"}, {"measurement": "PCO2", "setting": "[4]", "value": 15, "unit": "mm Hg"}, {"measurement": "PO2", "setting": "[4]", "value": 200, "unit": "mm Hg"}, {"measurement": "Total Hb concentration", "setting": "[4]", "value": 10, "unit": "gm %"}, {"measurement": "Viscosity", "setting": "[4]", "value": "≈2.0 cp"}, {"measurement": "pH", "setting": "[4]", "value": 6.9}, {"measurement": "COP of colloid solution", "setting": "[4]; 8% albumin, 10% hemoglobin, Wescor 4400 Colloid Osmometer", "value": "40.8±1.0", "unit": "mm Hg"}, {"measurement": "Bohr coefficient", "setting": "[4]; pH 7.2-7.4", "value": "0.54 (pH 7.2-7.4)"}, {"measurement": "P50", "setting": "[4]; pH 7.4", "value": "24 mm Hg (pH 7.4)"}, {"measurement": "Tests for pyrogenic effects, hypotensive effects, arrhythmia, inotropic effects, bradycardia, tachycardia, hypovolemia, dysoria, and coagulopathy", "setting": "[5]", "value": "negative"}, {"measurement": "LV Elastance", "setting": "[6]; [13]", "value": 4.91, "unit": "mm Hg ml"}, {"measurement": "LV dP/dtmax", "setting": "[6]; [13]", "value": 1713, "unit": "mm Hg/sec"}, {"measurement": "LVPP", "setting": "[6]; [13]", "value": 154, "unit": "mm Hg"}, {"measurement": "LVSW", "setting": "[6]; [13]", "value": 29.2, "unit": "g m/beat"}, {"measurement": "MAP", "setting": "[6]; [13]", "value": 136, "unit": "mm Hg"}, {"measurement": "heart rate", "setting": "[6]; [13]", "value": 153, "unit": "beats/min"}, {"measurement": "mean aortic, right atrial and LV end-diastolic (systemic) pressures vs control", "setting": "[6]; dog, in vivo", "value": "not changed"}, {"measurement": "systemic vascular resistance vs control", "setting": "[6]; dog, in vivo", "value": "not changed"}, {"measurement": "effect on cardiac output and stroke volume", "setting": "[6]; vs control", "value": "did not change"}, {"measurement": "increase in systemic vascular hindrance", "setting": "[6]; vs control", "value": "~100", "unit": "%"}, {"measurement": "Plasma Hb", "setting": "[7]", "value": 4.6, "unit": "g/100 ml"}, {"measurement": "Plasma Hb", "setting": "[7]; listed as hemoglobin", "value": 4.6, "unit": "g/100 ml"}, {"measurement": "plasma hemoglobin as share of total whole blood hemoglobin concentration", "setting": "[7]; dog, in vivo", "value": "approximately 40%"}, {"measurement": "hemoglobin excreted in urine, share of the approximately 100 grams infused", "setting": "[7]; hemoglobinuria", "value": "less than 1%"}, {"measurement": "C(a-v)O2", "setting": "[8]; anesthetized dogs", "value": 6.1, "unit": "ml/100 ml"}, {"measurement": "CvO2", "setting": "[8]; anesthetized dogs", "value": 8.8, "unit": "ml/100 ml"}, {"measurement": "CaO2", "setting": "[8]; anesthetized dogs", "value": 14.9, "unit": "ml/100 ml"}, {"measurement": "CaO2", "setting": "[8]; anesthetized dogs, listed as hemoglobin", "value": "14.9±0.4", "unit": "ml/100 ml"}, {"measurement": "DO2", "setting": "[8]; oxygen delivery = CaO2 x CO", "value": 302, "unit": "mL/min"}, {"measurement": "decrease in oxygen delivery", "setting": "[8]; vs control", "value": 30, "unit": "%"}, {"measurement": "reduction in arterial oxygen content", "setting": "[8]; vs control", "value": 24, "unit": "%"}, {"measurement": "WBVO2", "setting": "[8]; whole body oxygen consumption", "value": 125, "unit": "mL/min"}, {"measurement": "O2 extr", "setting": "[8]; whole body oxygen extraction ratio", "value": 45, "unit": "%"}, {"measurement": "Organ blood flow, change from control: Bone", "setting": "[9]", "value": "No"}, {"measurement": "Organ blood flow, change from control: Brain", "setting": "[9]", "value": "Yes (+40%)"}, {"measurement": "Organ blood flow, change from control: Gastrointestinal", "setting": "[9]", "value": "No"}, {"measurement": "Organ blood flow, change from control: Liver", "setting": "[9]", "value": "No"}, {"measurement": "Organ blood flow, change from control: Lung", "setting": "[9]", "value": "Yes (−53%)"}, {"measurement": "Organ blood flow, change from control: Myocardium", "setting": "[9]", "value": "Yes (+80%)"}, {"measurement": "Organ blood flow, change from control: Pancreas", "setting": "[9]", "value": "No"}, {"measurement": "Organ blood flow, change from control: Renal", "setting": "[9]", "value": "No"}, {"measurement": "Organ blood flow, change from control: Skeletal muscle", "setting": "[9]", "value": "No"}, {"measurement": "Organ blood flow, change from control: Skin", "setting": "[9]", "value": "No"}, {"measurement": "Organ blood flow, change from control: Spleen", "setting": "[9]", "value": "Yes (−39%)"}, {"measurement": "Organ blood flow, change from control: Total (= Cardiac output)", "setting": "[9]", "value": "No"}, {"measurement": "MAP", "setting": "cyclic GMP [10]", "value": "142 ± 6", "unit": "mm Hg"}, {"measurement": "Plasma cGMP", "setting": "cyclic GMP [10]; listed as oxyHb-HD", "value": "17.22 ± 1.02*+ μg/ml and 17.22 ± 1.02 μg/ml"}, {"measurement": "Cyclic GMP levels in regional interstitial microdialysate, MU", "setting": "cyclic GMP [11]; MU", "value": "17.98* μg/ml"}, {"measurement": "Cyclic GMP levels in regional interstitial microdialysate, BO", "setting": "cyclic GMP [11]; bone", "value": "18.64* μg/ml"}, {"measurement": "Cyclic GMP levels in regional interstitial microdialysate, BR", "setting": "cyclic GMP [11]; brain", "value": "19.94* μg/ml"}, {"measurement": "Cyclic GMP levels in regional interstitial microdialysate, GI", "setting": "cyclic GMP [11]; gastrointestinal tract", "value": "12.68* μg/ml"}, {"measurement": "Cyclic GMP levels in regional interstitial microdialysate, HE", "setting": "cyclic GMP [11]; heart", "value": "14.44* μg/ml"}, {"measurement": "Cyclic GMP levels in regional interstitial microdialysate, LI", "setting": "cyclic GMP [11]; liver", "value": "20.34* μg/ml"}, {"measurement": "Cyclic GMP levels in regional interstitial microdialysate, LU", "setting": "cyclic GMP [11]; lung", "value": "18.74* μg/ml"}, {"measurement": "Cyclic GMP levels in regional interstitial microdialysate, SP", "setting": "cyclic GMP [11]; spleen", "value": "16.40* μg/ml"}, {"measurement": "CO", "setting": "[1]; oxyHb-HD alone", "value": "2880 ± 245", "unit": "mL/min"}, {"measurement": "MAP", "setting": "cyclic GMP [2]; oxyHb-HD alone, n = 3", "value": "146 ± 5", "unit": "mm Hg"}, {"measurement": "cGMP", "setting": "cyclic GMP [2]; oxyHb-HD alone, n = 3, mean ± sem", "value": "17.80 ± 0.95", "unit": "µg/mL"}, {"measurement": "Cyanide", "setting": "blood, n = 6", "value": "0.13 ± 0.03", "unit": "mg/L"}, {"measurement": "Lactate", "setting": "dog, in vivo", "value": "2.2 ± 0.3", "unit": "meq/L"}]}
